Measurements published in US20230263822A1, “MODULATION OF FACTOR 11 EXPRESSION” (Ionis Pharmaceuticals, Inc., priority 2008, published 2023).
Strand notation (5' to 3'): a small letter for the sugar, then the base; units joined by * are phosphorothioate-linked, units joined directly phosphodiester-linked; [ ] holds rarer units or linkages, { } end groups; capitals alone tell only the bases. e = 2'-O-(2-methoxyethyl) (MOE); [5mC] = 5-methylcytosine; d = 2'-deoxy (DNA)

System: human Factor 11 mRNA
Test: Antisense inhibition of human Factor 11 in HepG2 cells, lipofectin, 75 nM (Example 1)
Format: cell-based
Conditions: 75 nM antisense oligonucleotide, ~24 h, relative to untreated control cells
Experimental: Antisense oligonucleotides targeted to a Factor 11 nucleic acid were tested for their effects on Factor 11 mRNA in vitro. Cultured HepG2 cells at a density of 10,000 cells per well were transfected using lipofectin reagent with 75 nM antisense oligonucleotide. After a treatment period of approximately 24 hours, RNA was isolated from the cells and Factor 11 mRNA levels were measured by quantitative real time PCR. Factor 11 mRNA levels were adjusted according to total RNA content, as measured by RIBOGREEN. Results are presented as percent inhibition of Factor 11, relative to untreated control cells.
The chimeric antisense oligonucleotides in Tables 1 and 2 were designed as 5-10-5 MOE gapmers. The gapmers are 20 nucleotides in length, wherein the central gap segment is comprised of 10 2′-deoxynucleotides and is flanked on both sides (in the 5′ and 3′ directions) by wings comprising 5 nucleotides each. Each nucleotide in the 5′ wing segment and each nucleotide in the 3′ wing segment has a 2′-MOE modification. The internucleoside linkages throughout each gapmer are phosphorothioate (P=S) linkages. All cytidine residues throughout each gapmer are 5-methylcytidines. “Target start site” indicates the 5′-most nucleotide to which the gapmer is targeted. “Target stop site” indicates the 3′-most nucleotide to which the gapmer is targeted. Each gapmer listed in Table 1 is targeted to SEQ TD NO: 1 (GENBANK Accession No. NM_000128.3) and each gapmer listed in Table 2 is targeted to SEQ TD NO: 2 (GENBANK Accession No. NT_022792.17, truncated from 19598000 to 19624000).

[1] = gapmers targeted to SEQ ID NO: 1
[2] = gapmers targeted to SEQ ID NO: 2

Row | Substance | % inhibition [1] | % inhibition [2]
1 | 412249 (antisense e[5mC]*eA*eT*eT*e[5mC]*dA*d[5mC]*dA*d[5mC]*dT*dG*d[5mC]*dT*dT*dG*eA*eG*eT*eT*eT) [compound 412249] | 55% | 
2 | 413529 (antisense eT*eG*eT*eG*eT*dG*dG*dG*dT*d[5mC]*d[5mC]*dT*dG*dA*dA*eA*eT*eT*e[5mC]*eT) [compound 413529] |  | 52%
3 | 413535 (antisense eG*eT*e[5mC]*eA*e[5mC]*dA*dT*dT*dT*dA*dA*dA*dA*dT*dT*eT*e[5mC]*e[5mC]*eA*eA) [compound 413535] |  | 41%
4 | 413530 (antisense eA*eT*e[5mC]*eT*eT*dG*dT*dA*dA*dT*dT*dA*d[5mC]*dA*d[5mC]*eA*e[5mC]*e[5mC]*e[5mC]*e[5mC]) [compound 413530] |  | 27%
5 | 413463 (antisense eG*eA*eG*eT*e[5mC]*dA*d[5mC]*dA*d[5mC]*dA*dT*dT*d[5mC]*dA*d[5mC]*e[5mC]*eA*eG*eA*eA) [compound 413463] | 74% | 
6 | 412246 (antisense eA*eG*eA*eT*e[5mC]*dA*dT*d[5mC]*dT*dT*dA*dT*dG*dG*dG*eT*eT*eA*eT*eT) [compound 412246] | 68% | 
7 | 412195 (antisense eA*eA*eA*eT*e[5mC]*dA*dT*d[5mC]*d[5mC]*dT*dG*dA*dA*dA*dA*eG*eA*e[5mC]*e[5mC]*eT) [compound 412195] | 22% | 
8 | 413512 (antisense eA*eT*eA*eT*eT*dT*d[5mC]*dA*dA*dA*dA*dT*d[5mC]*d[5mC]*dA*eG*eT*eA*eT*eG) [compound 413512] |  | 39%
9 | 413505 (antisense eT*eG*eG*eG*eA*dA*dA*dG*d[5mC]*dT*dT*dT*d[5mC]*dA*dA*eT*eA*eT*eT*e[5mC]) [compound 413505] |  | 57%
10 | 412188 (antisense eT*eG*eA*eG*eA*dG*dA*dA*dT*dT*dG*d[5mC]*dT*dT*dG*e[5mC]*eT*eT*eT*e[5mC]) [compound 412188] | 21% | 
11 | 413480 (antisense eA*eA*eG*eA*eA*dA*dT*d[5mC]*dA*dG*dT*dG*dT*d[5mC]*dA*eT*eG*eG*eT*eA) [compound 413480] | 71% | 
12 | 413536 (antisense eT*eT*eA*eA*eT*dA*dT*dA*d[5mC]*dT*dG*d[5mC]*dA*dG*dA*eG*eA*eA*e[5mC]*e[5mC]) [compound 413536] |  | 37%
13 | 413531 (antisense eG*eT*eA*e[5mC]*eA*d[5mC]*dT*d[5mC]*dT*dG*d[5mC]*dA*dA*d[5mC]*dA*eG*eA*eA*eG*e[5mC]) [compound 413531] |  | 47%
14 | 412207 (antisense e[5mC]*eG*eT*eG*eA*dA*dA*dA*dA*dG*dT*dG*dG*d[5mC]*dA*eG*eT*eG*eG*eA) [compound 412207] | 64% | 
15 | 413526 (antisense eG*eT*eA*eA*eA*dG*dT*dT*dT*dT*dA*d[5mC]*d[5mC]*dT*dT*eA*eA*e[5mC]*e[5mC]*eT) [compound 413526] |  | 47%
16 | 412187 (antisense eT*eT*e[5mC]*eA*eA*dA*d[5mC]*dA*dA*dG*dT*dG*dA*d[5mC]*dA*eT*eA*e[5mC]*eA*e[5mC]) [compound 412187] | 21% | 
17 | 412222 (antisense eA*eA*e[5mC]*eA*eA*dT*dA*dT*d[5mC]*d[5mC]*dA*dG*dT*dT*d[5mC]*eT*eT*e[5mC]*eT*e[5mC]) [compound 412222] | 5% | 
18 | 413503 (antisense eA*eT*eA*e[5mC]*e[5mC]*dT*dA*dG*dT*dA*d[5mC]*dA*dA*dT*dG*eT*eA*eA*eA*eT) [compound 413503] |  | 29%
19 | 413462 (antisense eA*eT*e[5mC]*eT*eT*dA*dG*dT*dA*dT*dG*dT*d[5mC]*dA*dG*eA*eA*eA*eT*eA) [compound 413462] | 12% | 
20 | 413486 (antisense eG*eG*e[5mC]*eT*eT*dG*dA*dT*dT*dT*dT*dG*dG*dT*dG*eG*eT*eA*e[5mC]*eA) [compound 413486] | 83% | 
21 | 413496 (antisense eG*eG*e[5mC]*eA*e[5mC]*dA*dG*dA*dT*d[5mC]*dA*dT*d[5mC]*dT*dT*eA*eT*eG*eG*eG) [compound 413496] | 72% | 
22 | 412262 (antisense eA*eA*eT*eG*eA*dG*dA*dT*dA*dA*dA*dT*dA*dT*dT*eT*eG*e[5mC]*eA*e[5mC]) [compound 412262] | 34% | 
23 | 413533 (antisense eA*eT*e[5mC]*e[5mC]*eA*dG*dT*dT*d[5mC]*dA*d[5mC]*d[5mC]*dA*dT*dT*eG*eG*eA*eG*eA) [compound 413533] |  | 48%

Row | Substance | % inhibition [1] | % inhibition [2]
24 | 413466 (antisense eA*e[5mC]*eA*eT*eA*dA*dA*dT*dG*dT*d[5mC]*dT*dT*dT*dG*eT*eT*eG*e[5mC]*eA) [compound 413466] | 79% | 
25 | 413460 (antisense eT*eA*e[5mC]*e[5mC]*eT*dT*dG*dA*dG*dA*dG*dA*dA*dT*dT*eG*e[5mC]*eT*eT*eG) [compound 413460] | 40% | 
26 | 412253 (antisense eA*eA*eA*eT*eA*dT*dT*dG*d[5mC]*d[5mC]*dT*dT*dA*dT*dG*eG*eT*eA*eA*eT) [compound 412253] | 20% | 
27 | 412218 (antisense eA*eA*e[5mC]*e[5mC]*eA*dG*dA*dA*dA*dG*dA*dG*d[5mC]*dT*dT*eT*eG*e[5mC]*eT*e[5mC]) [compound 412218] | 27% | 
28 | 413500 (antisense eG*eT*eG*eA*eG*dA*d[5mC]*dA*dA*dA*dT*d[5mC]*dA*dA*dG*eA*e[5mC]*eT*eT*e[5mC]) [compound 413500] |  | 15%
29 | 412221 (antisense eA*eT*e[5mC]*eA*eG*dT*dG*dT*d[5mC]*dA*dT*dG*dG*dT*dA*eA*eA*eA*eT*eG) [compound 412221] | 48% | 
30 | 412194 (antisense eT*eG*e[5mC]*eA*eA*dT*dT*d[5mC]*dT*dT*dA*dA*dT*dA*dA*eG*eG*eG*eT*eG) [compound 412194] | 80% | 
31 | 413489 (antisense e[5mC]*eA*e[5mC]*eT*eG*dG*dT*dT*dT*d[5mC]*d[5mC]*dA*dA*dT*dG*eA*eT*eG*eG*eA) [compound 413489] | 68% | 
32 | 413479 (antisense eT*eG*eT*e[5mC]*eA*dT*dG*dG*dT*dA*dA*dA*dA*dT*dG*eA*eA*eG*eA*eA) [compound 413479] | 40% | 
33 | 412260 (antisense e[5mC]*eA*e[5mC]*eA*eA*dA*dT*d[5mC]*dA*dT*dT*dT*dT*dT*d[5mC]*eA*eG*eG*eA*eA) [compound 412260] | 27% | 
34 | 413525 (antisense eG*eT*eA*eT*eA*dA*dA*dT*dG*dT*dG*dT*d[5mC]*dA*dA*eA*eT*eT*eA*eA) [compound 413525] |  | 43%
35 | 412229 (antisense eG*eT*eA*e[5mC]*eA*d[5mC]*dT*d[5mC]*dA*dT*dT*dA*dT*d[5mC]*d[5mC]*eA*eT*eT*eT*eT) [compound 412229] | 64% | 
36 | 412236 (antisense e[5mC]*e[5mC]*eA*eT*eA*dG*dA*dA*dA*d[5mC]*dA*dG*dT*dG*dA*eG*e[5mC]*eG*eG*e[5mC]) [compound 412236] | 72% | 
37 | 413518 (antisense eA*eT*eG*eG*eA*dA*dT*d[5mC]*dT*d[5mC]*dT*dT*d[5mC]*dA*dT*eT*eT*e[5mC]*eA*eT) [compound 413518] |  | 49%
38 | 412258 (antisense eG*eT*eG*eT*eA*dG*dA*dT*dT*d[5mC]*d[5mC]*dT*dG*d[5mC]*dA*eA*eA*eA*eT*eG) [compound 412258] | 44% | 
39 | 413516 (antisense e[5mC]*e[5mC]*eA*eG*e[5mC]*dT*dA*dT*d[5mC]*dA*dG*dG*dA*dA*dA*eA*eT*eT*e[5mC]*e[5mC]) [compound 413516] |  | 50%
40 | 413509 (antisense eT*e[5mC]*eA*eG*eG*dA*d[5mC]*dA*d[5mC]*dA*dA*dG*dT*dA*dA*eA*e[5mC]*e[5mC]*eT*eG) [compound 413509] |  | 66%
41 | 413493 (antisense eT*eT*eT*e[5mC]*eT*dT*dG*dA*dA*d[5mC]*d[5mC]*d[5mC]*d[5mC]*dA*dA*eA*eG*eA*eA*eA) [compound 413493] | 65% | 
42 | 412217 (antisense eA*eA*eT*e[5mC]*e[5mC]*dA*d[5mC]*dT*d[5mC]*dT*d[5mC]*dA*dG*dA*dT*eG*eT*eT*eT*eT) [compound 412217] | 47% | 
43 | 413514 (antisense eT*eT*eT*eA*e[5mC]*dT*dA*dT*dG*dA*dA*dA*dA*dT*d[5mC]*eT*eA*eA*eA*eT) [compound 413514] |  | 5%
44 | 413471 (antisense eT*e[5mC]*eA*eG*eT*dA*dG*dA*d[5mC]*dA*dA*dA*dT*dG*dT*eT*eA*e[5mC]*eG*eA) [compound 413471] | 67% | 
45 | 412227 (antisense eA*eG*eT*eA*eT*dT*dT*dT*dA*dG*dT*dT*dG*dG*dA*eG*eA*eT*e[5mC]*e[5mC]) [compound 412227] | 75% | 
46 | 413507 (antisense eT*eT*eT*e[5mC]*eA*dA*dG*d[5mC]*dT*d[5mC]*dA*dG*dG*dA*dT*eG*eG*eG*eA*eA) [compound 413507] |  | 55%
